The text below walks through data of ChEMBL document CHEMBL1131057, “Peptidomimetic growth hormone secretagogues. Design considerations and therapeutic potential” (J Med Chem, 1998).

SMILES strings stand for the structures. pEC50, pIC50: −log10 of the molar value. Where a SMILES comes first, the peptide text is derived from it. [ ]: non-standard residue; d: D form. dTrp(2-Me) = Cc1[nH]c2ccccc2c1C[C@@H](N)C(=O)O; d2Nal = N[C@H](Cc1ccc2ccccc2c1)C(=O)O; 3Amb = NCc1cccc(C(=O)O)c1; GABA = NCCCC(=O)O

The species named for series [1] is Rattus norvegicus. In words: compound was evaluated for GH release in the rat pituitary cell culture assay. Type of series: functional. The note with it: Pituitary gland cell.
Series [2] can be described thus: Half-life period measured in dog. Type of series: ADME, organism-based, Canis lupus familiaris. The following applies: in vivo.
The test system of series [3] is Rattus norvegicus. Briefly: Compound was evaluated for GH releasing properties after iv administration to infant rats. Type of series: functional, organism-based.
The species named for series [4] is Rattus norvegicus. In words: In Vitro evaluation for growth hormone release from the pituitary incubates. Type of series: functional.
For series [5], the species on record is Rattus norvegicus. Briefly: compound was evaluated for GH release in the rat. Type of series: functional, organism-based.
The test system of series [6] is Rattus norvegicus. In words: Potency measured in an anesthetized rat model. Type of series: functional, organism-based.
For series [7], the target named is T1, Growth hormone secretagogue receptor type 1 (Homo sapiens, UniProt Q92847). In words: Inhibitory concentration (biotinylated probe) is evaluated for [35S]- MK-0677 binding.
T1 sequence (Q92847 whole entry): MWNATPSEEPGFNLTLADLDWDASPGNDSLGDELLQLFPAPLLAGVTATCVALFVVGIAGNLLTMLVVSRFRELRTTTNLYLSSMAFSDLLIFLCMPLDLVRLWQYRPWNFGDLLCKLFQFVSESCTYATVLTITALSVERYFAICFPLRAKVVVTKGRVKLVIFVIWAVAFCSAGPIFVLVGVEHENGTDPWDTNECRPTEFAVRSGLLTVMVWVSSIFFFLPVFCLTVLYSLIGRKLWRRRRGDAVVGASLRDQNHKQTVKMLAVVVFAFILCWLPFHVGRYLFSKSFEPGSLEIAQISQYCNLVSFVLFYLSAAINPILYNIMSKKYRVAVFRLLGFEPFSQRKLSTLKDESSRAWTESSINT
The species named for series [8] is Rattus norvegicus. Briefly: Compound measured for stimulated GH release. Type of series: functional, organism-based.
A further series addresses T2, Oxytocin receptor (Homo sapiens, UniProt P30559).
T2 sequence (P30559 whole entry): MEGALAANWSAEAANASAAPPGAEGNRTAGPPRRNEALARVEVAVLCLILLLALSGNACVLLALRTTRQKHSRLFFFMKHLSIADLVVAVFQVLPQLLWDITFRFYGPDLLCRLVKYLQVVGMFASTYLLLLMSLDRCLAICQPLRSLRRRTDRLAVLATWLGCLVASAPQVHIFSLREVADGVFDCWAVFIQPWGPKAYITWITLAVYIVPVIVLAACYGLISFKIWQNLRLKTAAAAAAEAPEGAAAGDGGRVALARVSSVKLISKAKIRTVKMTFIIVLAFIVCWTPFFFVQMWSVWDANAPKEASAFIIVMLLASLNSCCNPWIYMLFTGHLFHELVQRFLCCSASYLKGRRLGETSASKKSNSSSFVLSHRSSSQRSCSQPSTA
Briefly: Antagonistic activity against Oxytocin receptor. Type of series: functional.

The species named for series [9] is Rattus norvegicus. Briefly: In vitro efficacy was evaluated for growth hormone release.
The species named for a further series is Homo sapiens. In words: compound was evaluated for GH release. Type of series: functional, organism-based.
For series [10], the target named is T1, Growth hormone secretagogue receptor type 1. Briefly: Compound was evaluated for GH release for effect on human GH secretagogue receptor. Type of series: functional.
The subject of series [11] is Rattus norvegicus. Briefly: Compound was tested for effective dose rquired for GH release following iv administration to 4-week old anesthetized Sprague-Dawley rats. Type of series: functional.
Series [12] in a line: In vitro efficacy was evaluated for growth hormone release.
A short description of series [13]: Compound was evaluated percentage of Oral bioavailability in dogs. Type of series: ADME, organism-based, Canis lupus familiaris. The note with it: dog, in vivo.
Series [14] is filed under the species Rattus norvegicus. In words: Compound was tested for GH releasing from cultured rat pituitary cells (maximal increase in 15 min). Type of series: functional, Pituitary gland cell.
Series [15] relates to Rattus norvegicus. In words: In Vivo efficacy was evaluated for growth hormone release. Type of series: functional, organism-based.

In turn, `CNC(=O)Nc1ccccc1-c1ccc(CN2C(=O)[C@H](NC(=O)CC(C)(C)N)CCc3ccccc32)cc1` gave a pEC50 in the series filed under Rattus norvegicus [1] of 7.30.

`CC(C)(N)C(=O)N[C@H](Cc1c[nH]c2ccccc12)C(=O)N1CCc2ccc(S(N)(=O)=O)cc2C1`: the pEC50 in the series filed under Rattus norvegicus [1] was 8.52.

`CCOC(=O)[C@H]1CC2(CCN(C(=O)[C@@H](CCCc3ccccc3)NC(=O)C(C)(C)N)CC2)c2ccccc21`: the half-life in [2] was 1.7 h. For the same molecule, the pEC50 in the series listed under Rattus norvegicus [1] is 8.72.

For `O=C(N[C@H](Cc1ccc2ccccc2c1)C(=O)N[C@@H](CO)Cc1c[nH]c2ccccc12)C1CCNCC1`, in the series filed under Rattus norvegicus [1], the negative logarithm of the EC50 (pEC50) was 7.97.

Molecule `Cc1[nH]c2ccccc2c1C[C@@H](NC(=O)CCCN)C(=O)N[C@H](Cc1ccc2ccccc2c1)C(=O)N[C@@H](Cc1ccccc1)C(=O)N[C@@H](CCCCN)C(N)=O` (H-[GABA][dTrp(2-Me)][d2Nal]FK-NH2) registered a Concentration in the series on Rattus norvegicus [3] of 198 ng/mL.

In the series listed under Rattus norvegicus [4], `CSCC[C@@H](NC(=O)[C@H](Cc1ccccc1)NC(=O)CNC(=O)[C@H](Cc1ccccc1)NC(=O)[C@@H](N)Cc1ccc(O)cc1)C(N)=O` returned a Concentration of 10 µg/mL.

In the series listed under Rattus norvegicus [1], `NCCCC[C@H](NC(=O)[C@@H](Cc1ccccc1)NC(=O)[C@@H](Cc1ccc2ccccc2c1)NC(=O)c1cccc(CN)c1)C(N)=O` (H-[3Amb][d2Nal][dF]K-NH2) showed a negative-log EC50 (pEC50) of 8.15.

The molecule `NCCCC[C@H](NC(=O)[C@H](Cc1ccccc1)NC(=O)[C@@H](Cc1ccc2ccccc2c1)NC(=O)[C@@H](Cc1ccc2ccccc2c1)NC(=O)C1CCNCC1)C(N)=O` showed a negative-log EC50 (pEC50) in the series listed under Rattus norvegicus [5] of 9.74.

Molecule `C[C@H](NC(=O)[C@@H](Cc1c[nH]c2ccccc12)NC(=O)[C@@H](N)Cc1c[nH]cn1)C(=O)N[C@@H](Cc1c[nH]c2ccccc12)C(=O)N[C@@H](CN[C@H](CO)CCCCN)Cc1ccccc1` gave a pEC50 in the series with Rattus norvegicus [6] of 9.30.

As for `CC(C)(N)C(=O)N[C@H](COCc1ccccc1)C(=O)N1CCC2(CC1)CN(S(=O)(=O)CC(=O)NCCCCCCNC(=O)CCCC[C@@H]1SCC3NC(=O)NC31)c1ccccc12` (stereo partly drawn), in [7], the negative logarithm of the IC50 (pIC50) is 9.70. In the series listed under Rattus norvegicus [8], this molecule had a negative-log EC50 (pEC50) of 8.60.

For `C[C@@H](O)CN1CCC[C@@H](C(=O)NC2CC3CCC2(CS(=O)(=O)N2CCC4(CCc5ccccc54)CC2)C3(C)C)C1` (stereo partly drawn), the pIC50 against Oxytocin receptor is 6.89. The negative-log EC50 (pEC50) in the series listed under Rattus norvegicus [9] is 7.05.

Take `C[C@@H]1NC(=O)[C@H](Cc2ccc3ccccc3c2)NC(=O)[C@@H](N)CCCCNC(=O)CC[C@H](C(=O)N[C@@H](CCCCN)C(N)=O)NC(=O)[C@@H](Cc2ccccc2)NC(=O)[C@@H](Cc2c[nH]c3ccccc23)NC1=O`: in the series listed under Homo sapiens, the negative logarithm of the EC50 (pEC50) is 9.37.

For `NC(=O)CN(CCc1ccccc1)C(=O)[C@@H](Cc1ccc2ccccc2c1)NC(=O)[C@@H](Cc1ccc2ccccc2c1)NC(=O)C1CCNCC1`, the negative logarithm of the EC50 (pEC50) in [10] is 9.47.

Molecule `Cc1ccc(S(=O)(=O)Nc2ccc3c(c2)CCN(C(=O)[C@@H](Cc2c[nH]c4ccccc24)NC(=O)C(C)(C)N)C3)cc1` returned an ED50 with Rattus norvegicus [11] of more than 10 mg/kg. Besides, the negative logarithm of the EC50 (pEC50) in the series listed under Rattus norvegicus [1] was 8.52.

Take `CC(C)(N)CC(=O)N[C@@H]1CCc2ccccc2N(Cc2ccc(-c3ccccc3-c3nn[nH]n3)cc2)C1=O`: the pEC50 in [12] is 7.22. The molecule further gave a bioavailability in [13] of less than 5%. In addition, the Max in the series filed under Rattus norvegicus [14] is 300%.

`CC(C)(N)CC(=O)NC1CCc2ccccc2N(Cc2ccc(-c3ccccc3C(=O)O)cc2)C1=O` (stereo not drawn) had a pEC50 in the series with Rattus norvegicus [15] of 5.52.

Turning to `CNC(=O)Nc1ccccc1-c1ccc2c(c1)CCN(C(=O)[C@@H](Cc1c[nH]c3ccccc13)NC(=O)C(C)(C)N)C2`, the negative logarithm of the EC50 (pEC50) in the series listed under Rattus norvegicus [1] is 7.00.
